The results in this text go back to US20260159520A1, “HETEROBIFUNCTIONAL COMPOUNDS AND METHODS OF TREATING DISEASE” (Halda Therapeutics OpCo, Inc., priority 2022, published 2026).

For experiment [1], the system named is T-Rex 293 cell line SC cells having increased expression of progesterone receptor isoform B protein. Nature of the experiment: Cellular growth inhibition, T-Rex 293 SC cells with doxycycline (increased progesterone receptor isoform B expression). Format: cell-based. Particulars: with 10 ng/mL doxycycline (increased progesterone receptor isoform B), 72 hours, CellTiter-Glo 2.0. Here is the method: (§1) The following types of cells were prepared for this experiment: (i) a T-Rex 293 cell line having increased expression of progesterone receptor isoform B protein due to exposure to doxycycline and (ii) a T-Rex 293 cell line lacking increased expression of progesterone receptor isoform B protein. Ability of the test compounds to inhibit proliferation of the foregoing cell types was evaluated according to the procedures set forth below.
(§2) The doxycycline-inducible progesterone receptor isoform B protein expressing cell line was established using the following protocol: T-Rex 293 cells were purchased from Invitrogen (Cat #R71007) and transfected using Lipofectamine 2000 with the wild-type progesterone receptor B protein sequence cloned into the pcDNA4/TO vector. Transfected cells were selected using 400 μg/mL Zeocin (Invitrogen Cat #R25001). Following selection, single clones were raised and maintained in Dulbecco's Modified Eagle Medium (DMEM) supplemented with 10% w/w Tetracycline-free fetal bovine serum (FBS) and 250 μg/mL Zeocin. Clones were analyzed for expression of progesterone receptor isoform B protein in the presence and absence of 10 ng/mL doxycycline (Sigma Cat #D9891), and a single doxycycline-inducible clone (hereinafter “SC”) was selected for use in downstream assays.
(§3) The SC cells were seeded on poly-D-lysine coated, black clear-bottom 384-well plates at 2500/well, in 25 μL Phenol Red Free Dulbecco's Modified Eagle Medium (DMEM) supplemented with 10% w/w charcoal-dextran treated fetal bovine serum (FBS) and 1% w/w pen-strep, with or without 10 ng/mL doxycycline. Pen-Strep is a commercially available mixture of penicillin G and streptomycin, which is used in mammalian cell culture media to prevent bacterial contamination. Phenol Red Free Dulbecco's Modified Eagle Medium (DMEM) supplemented with 10% w/w charcoal-dextran treated fetal bovine serum (FBS) and 1% w/w pen-strep, with or without 10 ng/mL doxycycline is herein referred to as Treatment Medium. Following seeding of cells in the plates, the plates were spun at 300×g for 30 seconds, then equilibrated to room temperature for 30 minutes, and then deposited in a humidified tissue culture incubator maintained at 37° C. with 5% CO2.
(§4) At 24 hours after seeding of the cells, dilutions of test compound were prepared in DMSO and dissolved in Treatment Medium, to achieve a final DMSO concentration of 0.5% w/w, thereby providing the Test Compound Solution. A 25 μL aliquot of the Test Compound Solution was added to cells in the well plates. An equal volume of a solution containing DMSO and Treatment Medium was used as a negative control. Following treatment of cells with Test Compound Solution or said equal volume of a solution containing DMSO and Treatment Medium, the plates were spun at 300×g for 30 seconds, and then left in an incubator for 72 hours.
(§5) At the end of the treatment duration, cell viability was quantified with CellTiter-Glo 2.0 reagent (Promega Cat #G9243). For this purpose, plates were equilibrated to room temperature for 30 minutes, and then 25 μL of CellTiter-Glo 2.0 reagent was added to cells in the plate wells. Plates were then agitated on a shaker for two minutes at 500 rpm and subsequently incubated at room temperature for 10 minutes. Following incubation, the plates were spun at 3000×g for 30 seconds, then sealed with an optical adhesive cover, and luminescence readings were measured with an EnVision Plate Reader (Perkin Elmer).
(§6) Data was normalized using zero luminescence for baseline. A four-parameter non-linear regression curve fit was applied to dose-response data in GraphPad Prism data analysis software to determine the half-maximal growth inhibitory concentration (GI50) for each test compound.
On the technique in general: In ATP-based viability assays light output follows the ATP content of the culture.

The test system of experiment [2] is T-Rex 293 cell line SC cells lacking increased expression of progesterone receptor isoform B protein. Nature of the experiment: Cellular growth inhibition, T-Rex 293 SC cells without doxycycline. It is filed as cell-based. Particulars: not exposed to doxycycline, 72 hours, CellTiter-Glo 2.0. How it is done: as §1, §2, §3, §4, §5, §6

Where only a bound is given, the exact number is not on record here.

In general, GI50 refers to the concentration at which growth is held to half of that of the control.

For `CCc1cnn2c(NCc3ccc(OCCCN4CCN(CC5CCN(c6ccc(C(=O)N[C@H]7C(C)(C)[C@H](Oc8ccc(C#N)c(Cl)c8)C7(C)C)cn6)CC5)CC4)nc3)cc(N3CCCC[C@@H]3CCO)nc12` [Compound I-55, N-((1r,3r)-3-(3-chloro-4-cyanophenoxy)-2,2,4,4-tetramethylcyclobutyl)-6-(4-((4-(3-((5-(((3-ethyl-5-((R)-2-(2-hydroxyethyl)piperidin-1-yl)pyrazolo[1,5-a]pyrimidin-7-yl)amino)methyl)pyridin-2-yl)oxy)propyl)piperazin-1-yl)methyl)piperidin-1-yl)nicotinamide], the GI50 in experiment [1] and in experiment [2] was less than 500 nM throughout.
For the compound `CC(C)n1cc(-c2ccnc3[nH]c(C4CCN(CCN5CCN(CC6CCN(c7ncc(C(=O)NC8C(C)(C)C(Oc9ccc(C#N)c(Cl)c9)C8(C)C)cn7)CC6)CC5)CC4)cc23)ccc1=O` (stereo not drawn) [Compound I-74, N-[3-(3-chloro-4-cyano-phenoxy)-2,2,4,4-tetramethyl-cyclobutyl]-2-[4-[[4-[2-[4-[4-(1-isopropyl-6-oxo-3-pyridyl)-1H-pyrrolo [2,3-b]pyridin-2-yl]-1-piperidyl]ethyl]piperazin-1-yl]methyl]-1-piperidyl]pyrimidine-5-carboxamide], the GI50 in experiment [1] and in experiment [2] was less than 500 nM each time.
In the case of `CC1(C)[C@H](NC(=O)c2cnc(N3CCC(OCCNS(=O)(=O)c4ccc(Nc5ncc(Br)c(Nc6cccc(F)c6C(N)=O)n5)cc4)CC3)nc2)C(C)(C)[C@H]1Oc1ccc(C#N)c(Cl)c1` [Compound I-13, 2-(4-(2-((4-((5-bromo-4-((2-carbamoyl-3-fluorophenyl)amino)pyrimidin-2-yl)amino)phenyl)sulfonamido)ethoxy)piperidin-1-yl)-N-((1 r,3r)-3-(3-chloro-4-cyanophenoxy)-2,2,4,4-tetramethylcyclobutyl)pyrimidine-5-carboxamide], the GI50 in experiment [1] and in experiment [2] was greater than 3000 nM in each case.
Turning to `Cc1ncc(-c2nc(Nc3ccc(C(=O)N4CC[C@H](N(C)CCOCCOCCOCCOCCOC5CCN(c6ncc(C(=O)N[C@H]7C(C)(C)[C@H](Oc8ccc(C#N)c(Cl)c8)C7(C)C)cn6)CC5)C4)cc3)ncc2F)n1C(C)C` [Compound I-97], the GI50 in experiment [1] was 500 to 1500 nM; in experiment [2], 1500 to 3000 nM.
The corresponding values for `Cc1ncc(-c2nc(Nc3ccc(C(=O)N4CC[C@H](N(C)CCOCCOCCOC5CCN(c6ncc(C(=O)N[C@H]7C(C)(C)[C@H](Oc8ccc(C#N)c(Cl)c8)C7(C)C)cn6)CC5)C4)cc3)ncc2F)n1C(C)C` [Compound I-96] are 1500 to 3000 nM and 1500 to 3000 nM.
For `CCc1cnn2c(NCc3ccc(OCCOCCOCCOC4CCN(c5ccc(C(=O)N[C@H]6C(C)(C)[C@H](Oc7ccc(C#N)c(Cl)c7)C6(C)C)nn5)CC4)nc3)cc(N3CCCC[C@H]3CCO)nc12` [Compound I-44, N-((1r,3r)-3-(3-chloro-4-cyanophenoxy)-2,2,4,4-tetramethylcyclobutyl)-6-(4-(2-(2-(2-((5-(((3-ethyl-5-((S)-2-(2-hydroxyethyl)piperidin-1-yl)pyrazolo[1,5-a]pyrimidin-7-yl)amino)methyl)pyridin-2-yl)oxy)ethoxy)ethoxy)ethoxy)piperidin-1-yl)pyridazine-3-carboxamide] the same measures were less than 500 nM and less than 500 nM.
For `CCc1cnn2c(NCc3ccc(OC4CCN(CC5CCN(c6ncc(C(=O)N[C@H]7C(C)(C)[C@H](Oc8ccc(C#N)c(Cl)c8)C7(C)C)cn6)CC5)CC4)nc3)cc(N3CCCC[C@H]3CCO)nc12` [Compound I-46] the same measures were less than 500 nM and less than 500 nM.
As for `CC1(C)[C@H](NC(=O)c2cnc(N3CCC(CN4CCN(CCN5C/C=C/CCOc6cccc(c6)-c6ccnc(n6)Nc6cccc(c6)C5)CC4)CC3)nc2)C(C)(C)[C@H]1Oc1ccc(C#N)c(Cl)c1` [Compound I-94], the GI50 was 500 to 1500 nM in experiment [1] and greater than 3000 nM in experiment [2].
For `CCc1cnn2c(NCc3ccc(=O)n(CCOCCOCCOCCOCCOCCOCCN(C)c4ncc(C(=O)N[C@H]5C(C)(C)[C@H](Oc6ccc(C#N)c(Cl)c6)C5(C)C)cn4)c3)cc(N3CCCC[C@H]3CCO)nc12` [Compound I-4, N-((1r,3r)-3-(3-chloro-4-cyanophenoxy)-2,2,4,4-tetramethylcyclobutyl)-2-((20-(5-(((3-ethyl-5-((S)-2-(2-hydroxyethyl)piperidin-1-yl)pyrazolo[1,5-a]pyrimidin-7-yl)amino)methyl)-2-oxopyridin-1(2H)-yl)-3,6,9,12,15,18-hexaoxaicosyl)(methyl)amino)pyrimidine-5-carboxamide] the same measures were less than 500 nM and less than 500 nM.
The corresponding values for `CCc1cnn2c(NCc3ccc(OCCOCCOCCOCCOCCOCCOCCN(C)c4ncc(C(=O)N[C@H]5C(C)(C)[C@H](Oc6ccc(C#N)c(Cl)c6)C5(C)C)cn4)nc3)cc(N3CCCC[C@H]3CCO)nc12` [Compound I-5] are less than 500 nM and 500 to 1500 nM.
The corresponding values for `CCc1cnn2c(NCc3ccc(OCCCN4CCN(CC5CCN(c6ccc(C(=O)N[C@H]7C(C)(C)[C@H](Oc8ccc(C#N)c(Cl)c8)C7(C)C)cc6)CC5)CC4)nc3)cc(N3CCCC[C@@H]3CCO)nc12` [II-1, N-((1r,3r)-3-(3-chloro-4-cyanophenoxy)-2,2,4,4-tetramethylcyclobutyl)-4-(4-((4-(3-((5-(((3-ethyl-5-((R)-2-(2-hydroxyethyl)piperidin-1-yl)pyrazolo[1,5-a]pyrimidin-7-yl)amino)methyl)pyridin-2-yl)oxy)propyl)piperazin-1-yl)methyl)piperidin-1-yl)benzamide] are less than 500 nM and less than 500 nM.
For `CCc1cnn2c(NCc3ccc(OCCOCCOCCOCCOCCN(C)c4ncc(C(=O)N[C@H]5C(C)(C)[C@H](Oc6ccc(C#N)c(Cl)c6)C5(C)C)cn4)nc3)cc(N3CCCC[C@H]3CCO)nc12` [Compound I-3], the GI50 in experiment [1] and in experiment [2] was less than 500 nM throughout.
Take `Cc1ncc(-c2nc(Nc3ccc(C(=O)N4CC[C@H](N(C)CCOC5CCN(c6ncc(C(=O)N[C@H]7C(C)(C)[C@H](Oc8ccc(C#N)c(Cl)c8)C7(C)C)cn6)CC5)C4)cc3)ncc2F)n1C(C)C` [Compound I-95, N-[3-(3-chloro-4-cyano-phenoxy)-2,2,4,4-tetramethyl-cyclobutyl]-2-[4-[2-[[(3S)-1-[4-[[5-fluoro-4-(3-isopropyl-2-methyl-imidazol-4-yl)pyrimidin-2-yl]amino]benzoyl]pyrrolidin-3-yl]-methyl-amino]ethoxy]-1-piperidyl]pyrimidine-5-carboxamide]: the GI50 in experiment [1] and in experiment [2] was less than 500 nM in each case.
Consider `CCc1cnn2c(NCc3ccc(N4CCC(N5CCN(C6CN(c7ncc(C(=O)N[C@H]8C(C)(C)[C@H](Oc9ccc(C#N)c(Cl)c9)C8(C)C)cn7)C6)CC5)CC4)nc3)cc(N3CCCC[C@H]3CCO)nc12` [Compound I-86], for which the GI50 in experiment [1] and in experiment [2] was less than 500 nM in each case.
`CCc1cnn2c(NCc3ccc(OCCOC4CCN(c5ncc(C(=O)N[C@H]6C(C)(C)[C@H](Oc7ccc(C#N)c(Cl)c7)C6(C)C)cn5)CC4)nc3)cc(N3CCCC[C@H]3CCO)nc12` [Compound I-7, N-((1r,3r)-3-(3-chloro-4-cyanophenoxy)-2,2,4,4-tetramethylcyclobutyl)-2-(4-(2-((5-(((3-ethyl-5-((S)-2-(2-hydroxyethyl)piperidin-1-yl)pyrazolo[1,5-a]pyrimidin-7-yl)amino)methyl)pyridin-2-yl)oxy)ethoxy)piperidin-1-yl)pyrimidine-5-carboxamide]: the GI50 in experiment [1] and in experiment [2] was less than 500 nM throughout.
